Entries after “also recorded” stand apart in the source; their conditions may differ.
What was measured:
[1] = topical, complete carcinogenesis model; cited from earlier work
[2] = DMBA-initiated and TPA-promoted; cited from earlier work
[3] = test system: liver catalase; assay: Liver catalase activity after three weeks of diet treatment; assay type: in vivo, mouse (female Balb/c); conditions: 0.25% of diet
Description: (§1) Female Balb/c mice were housed in polycarbonate cages (6/mice/cage) in animal quarters maintained at 24°±1° C. with 12 hours of light and 12 hours of dark each day. The mice were placed on a diet containing either DHEA, 8354, A, B clofibrate or with no addition. Three weeks later the mice were killed, the livers were perfused with cold saline, weighed, and 5% liver homogenates were prepared for the determination of catalase activity by the spectrophotometric method of Luck (H. Luck, in Method in Enzyme Analysis, H. U. Bergmeyer, Ed. (Verlag Chemie, Weinheim/Bergstrasse, Germany, 1965)). Total protein was measured by the method of Lowry, et al. (O. H. Lowry, N. J. Rosebrough, A. L. Farr, R. J. Randall, J. Biol. Chem., 193, 265 (1951)).

[4] = molecular target: purified bovine adrenal G6PDH (Bos taurus, UniProt F1MMK2); assay: G6PDH inhibition test; assay type: biochemical; conditions: individual determinations
purified bovine adrenal G6PDH, sequence (F1MMK2 31-70): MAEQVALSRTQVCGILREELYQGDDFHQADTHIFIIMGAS
purified bovine adrenal G6PDH, sequence (F1MMK2 101-575): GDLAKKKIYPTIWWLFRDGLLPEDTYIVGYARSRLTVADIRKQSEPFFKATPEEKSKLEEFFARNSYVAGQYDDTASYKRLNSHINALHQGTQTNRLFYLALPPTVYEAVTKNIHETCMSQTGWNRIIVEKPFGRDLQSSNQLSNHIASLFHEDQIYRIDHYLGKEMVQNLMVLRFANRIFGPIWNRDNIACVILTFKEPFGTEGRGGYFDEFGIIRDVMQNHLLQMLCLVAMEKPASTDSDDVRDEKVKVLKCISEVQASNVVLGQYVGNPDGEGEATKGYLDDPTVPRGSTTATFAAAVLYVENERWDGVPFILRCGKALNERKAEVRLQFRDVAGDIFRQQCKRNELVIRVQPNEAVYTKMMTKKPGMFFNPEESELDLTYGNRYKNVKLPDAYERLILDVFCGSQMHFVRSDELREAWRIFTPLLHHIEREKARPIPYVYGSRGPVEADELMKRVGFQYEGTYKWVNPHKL
Excerpt: The compound listed below are screened as inhibitors of purified bovine adrenal G6PDH activity as one predictor of cancer preventive action. The assay for testing the inhibition of purified bovine adrenal G6PDH is according to the procedure by Oertell, G. W. and Rebelein, I. in Biochem. Biophys. Acta, 184, 459-460 (1969).

[5] = Estrogenic / androgenic side-effects, general statements; conditions: in vivo
[6] = test system: mouse skin DNA; assay: (3H) DMBA binding to skin DNA; assay type: in vivo, mouse (A/J); conditions: oral, mice, doses well below 400 mg/kg
[7] = Anti-weight effect in mice, general statements; assay type: in vivo, mouse
Excerpt: (Table 9 vs Table 5 and Table 6). […] Thus the cancer preventive the cancer preventive effect of DHEA may result indirectly from its anti-weight action rather than from a direct effect of DHEA or target cells.

[8] = test system: mouse epidermis (TPA stimulated 3H-thymidine incorporation); assay: TPA stimulation of 3H-thymidine incorporation in mouse epidermis, oral steroid; assay type: in vivo, mouse (male ICR); conditions: Table 9, no steroid 55.1, TPA alone 118
Description: Tumor promoters, such as TPA, stimulate hyperplasia and DNA synthesis when applied to the skin, and it is believed that this stimulation is an important step in the enhancement of tumorigenesis.
Male ICR mice were orally intubated with steroid suspended in sesame oil (0.5 ml/mouse) at the indicated dose. Mice not receiving steroid were given sesame oil alone. One hour later mice received topical application of TPA and 20 hours later the rate of ^3 H-thymidine incorporation into the epidermis was determined as described in Pashko, L. L., Schwartz, A. G., Abou-Gharbia, M., and Swern, D. (1981), Inhibition of DNA synthesis in mouse epidermis and breast epithelium by dehydroepiandrosterone and related steroids, Carcinogenesis, 2,-717-721.
Experimental conditions are the same as in Table 3.

[9] = Liver weight after three weeks of diet treatment; assay type: in vivo, mouse (female Balb/c); conditions: 0.25% of diet
Description: as §1

[10] = Estrogenic and anti-estrogenic activity, uterine weight; assay type: in vivo, rat (female CD); conditions: Table 2a; 60 mg/kg s.c. for 3 days; control 1.95 ± 0.22; DHEA significantly greater than control, p < 0.001
Description: Estrogenic and Anti-Estrogenic Activity
Female CD rats, 26-27 days old, were injected subcutaneously for 3 days with one of the compounds of the present invention at 60 mg/kg in propylene glycol. Controls received propylene glycol alone. On the 4th day, the rats were killed and the uteri were dissected out and weighed.

[11] = Anti-obesity action, body weight, female Balb/c mice; assay type: in vivo, mouse (female Balb/c); conditions: 0.25% in diet
Description: Female Balb/c (8 weeks old) mice were obtained from
the Jackson Laboratory and were housed in polycarbonate cages
(6 mice/cage) in animal quarters maintained at 24 ± 1° C. with
12 hours of light and 12 hours of darkness each day. One
week after arrival, the mice were placed on a diet containing
either DHEA, 8354, or without steroid. Animals were weighed

[12] = test system: human lymphocytes (Epstein-Barr virus-induced transformation); conditions: cited from earlier work
[13] = test system: mammalian glucose-6-phosphate dehydrogenase (G6PDH); conditions: cited from earlier work
[14] = after carcinogen; cited from earlier work
[15] = in vivo; cited from earlier work

For `C[C@H]1CC[C@@]2(C)C(=CC[C@@H]3[C@@H]2CC[C@]2(C)C(=O)CC[C@@H]32)C1` [3β-methylandrost-5-en-17-one], which “DMBA produced papillomas and carcinomas” value [1] is on record?
The value was “inhibits DMBA produced papillomas and carcinomas”.

What about the skin papilloma formation [2] of the same molecule?
Its skin papilloma formation is “inhibit”.

For `C[C@]12CCCCC1=CC[C@@H]1[C@@H]2CC[C@]2(C)C(=O)[C@H](F)C[C@@H]12` [Compound 8354], which “CATALASE ACTIVITY” value ([3]; control 31.1 ± 6.7, DHEA p < 0.05, clofibrate p < 0.001 vs control) is on record?
The value was 29.2 ± 2.6 Units per mg protein.

What about the “catalase activity, in words” value ([3]; mice) of the same molecule?
Its value is “no effect on liver weight or catalase activity”.

What about the “Percent Inhibition of G6PDH” value ([4]; 10^-5 M) of the same molecule?
The value was 83%.

What about the inhibition at 10 µM ([4]; 10^-5 M, read-out: Percent Inhibition of G6PDH) of the same molecule?
Its inhibition at 10 µM is 79%.

And the “Percent Inhibition of G6PDH” value ([4]; 10^-6 M)?
Its value is 77%.

What about the inhibition at 1 µM ([4]; 10^-6 M, read-out: Percent Inhibition of G6PDH) of the same molecule?
The inhibition at 1 µM was 75%.

And the “estrogenic and androgenic side-effects” value [5]?
The value was “lacking the estrogenic and androgenic side-effects of DHEA”.

And the “effect on 3H-DMBA binding to skin DNA” value [6]?
The value was “inhibit ^3 H-DMBA binding to skin DNA”.

And the “activity as an anti-obesity agent relative to DHEA” value ([7]; mouse, in vivo)?
The value was “several times more active than DHEA as an anti-obesity agent”.

And the “anti-weight effect at the cancer preventive dosages” value ([7]; oral, mice)?
Its value is “possible exception”.

What about the “SPECIFIC ACTIVITY, TPA stimulated 3H-thymidine incorporation” value (“SPECIFIC ACTIVITY” below) ([8]; oral 25 mg/kg) of the same molecule?
Its value is 47.9 ± 2.0 cpm/ug DNA.

What about the “SPECIFIC ACTIVITY” value ([8]; oral 50 mg/kg) of the same molecule?
The value was 36.2 ± 1.4 cpm/ug DNA.

What about the “SPECIFIC ACTIVITY” value ([8]; oral 100 mg/kg) of the same molecule?
Its value is 15.0 ± 6.3 cpm/ug DNA.

And the “LIVER WEIGHT” value ([9]; control 0.057 ± 0.006, DHEA p < 0.05, clofibrate p < 0.002 vs control)?
Its value is 0.066 ± 0.005 gm/gm body weight.

What about the “liver weight, in words” value ([9]; mice) of the same molecule?
The value was “no effect on liver weight; also recorded: neither increased liver weight”.

And the “Mean Uterine Weigh ± S.D.” value [10]?
Its value is 1.93 ± 0.29.

What about the “mean weekly weight ± S.D.” value ([11]; week 0, control 17.5 ± 1.4) of the same molecule?
Its value is 17.4 ± 0.6 grams.

What about the “mean weekly weight ± S.D.” value ([11]; week 1, control 19.9 ± 1.2) of the same molecule?
Its value is 16.9 ± 1.0 grams.

And the “mean weekly weight ± S.D.” value ([11]; week 2, control 20.6 ± 1.0)?
Its value is 17.8 ± 0.8 grams.

What about the “mean weekly weight ± S.D.” value ([11]; week 3, control 21.8 ± 0.8) of the same molecule?
The value was 18.0 ± 1.3 grams.

With `C[C@]12CC[C@H](O)C[C@@H]1CC[C@@H]1[C@@H]2CC[C@]2(C)C(=O)C(Br)C[C@@H]12` (some centres unmarked) [16-bromo-epiandrosterone] as the molecule, how does the “inhibition of Epstein-Barr virus-induced transformation” value [12] read?
The value was “inhibitors of Epstein-Barr virus-induced transformation of human lymphocytes”.

What about the “inhibition of mammalian G6PDH” value [13] of the same molecule?
The value was “more potent inhibitor of mammalian G6PDH than DHEA”.

Which results are given for `CCCCC(CC)COC(=O)c1ccccc1C(=O)OCC(CC)CCCC` (centres unmarked) [di(2-ethylhexyl)-phthalate]?
liver basophilic lesions, enzyme-negative [14]: also produced; effect on liver (type of hepatomegaly) [15]: Typical peroxisome proliferators
